pEC50, pIC50, pKi: −log10 of the molar value. Residues, ends and D or L forms follow the SMILES beside them. *: point of attachment. Decanoyl = CCCCCCCCCC(=O)*; CH2Cl = ClC*
Tests used:
[1] = biological target: Gamma-secretase; assay: Inhibition of gamma secretase mediated amyloid beta level reduction in HEK293 cells expressing APP after 72 hrs by chemiluminescence assay; assay type: cell-based, Homo sapiens
[2] = biological target: Gamma-secretase; assay: Inhibition of gamma secretase in human primary neuronal cells assessed as reduction in amyloid beta 40
[3] = biological target: Gamma-secretase; assay: Inhibition of gamma secretase (unknown origin) mediated Notch signaling by cell based luciferase reporter gene assay
[4] = biological target: Gamma-secretase; assay: Inhibition of gamma secretase (unknown origin) assessed as reduction in amyloid beta levels by HTRF assay; assay type: protein-complex assay, Homo sapiens
[5] = biological target: Gamma-secretase; assay: Inhibition of full-length human gamma secretase expressed in SH-SY5Y spbetaA4CTF cells assessed as reduction in amyloid beta levels after 90 mins by HTRF assay; assay type: cell-based
[6] = biological target: Gamma-secretase; assay: Inhibition of gamma secretase mediated Notch delta E activation in human HeLa cells expressing EGFP after 16 hrs by immunofluorescence analysis; assay type: cell-based
[7] = biological target: Gamma-secretase; assay: Inhibition of gamma secretase in human SupT1 cells assessed as reduction in amyloid beta 40 after 16 hrs by chemiluminescence assay; assay type: cell-based
[8] = biological target: Gamma-secretase; assay: Inhibition of gamma secretase mediated Notch signaling in human SupT1 cells after 16 hrs by chemiluminescence assay; assay type: cell-based
[9] = biological target: Gamma-secretase; assay: Inhibition of gamma secretase (unknown origin) mediated Notch activation; assay type: protein-complex assay, Homo sapiens
[10] = biological target: Gamma-secretase; assay: Inhibition of gamma secretase (unknown origin) mediated Notch signaling; assay type: protein-complex assay, Homo sapiens
[11] = biological target: Disintegrin and metalloproteinase domain-containing protein 17 (Homo sapiens, UniProt P78536); assay: Inhibition of ADAM17 (unknown origin) assessed as blockage of TNF-alpha shedding
Sequence of Disintegrin and metalloproteinase domain-containing protein 17 (P78536 whole entry, the tested form may be a part): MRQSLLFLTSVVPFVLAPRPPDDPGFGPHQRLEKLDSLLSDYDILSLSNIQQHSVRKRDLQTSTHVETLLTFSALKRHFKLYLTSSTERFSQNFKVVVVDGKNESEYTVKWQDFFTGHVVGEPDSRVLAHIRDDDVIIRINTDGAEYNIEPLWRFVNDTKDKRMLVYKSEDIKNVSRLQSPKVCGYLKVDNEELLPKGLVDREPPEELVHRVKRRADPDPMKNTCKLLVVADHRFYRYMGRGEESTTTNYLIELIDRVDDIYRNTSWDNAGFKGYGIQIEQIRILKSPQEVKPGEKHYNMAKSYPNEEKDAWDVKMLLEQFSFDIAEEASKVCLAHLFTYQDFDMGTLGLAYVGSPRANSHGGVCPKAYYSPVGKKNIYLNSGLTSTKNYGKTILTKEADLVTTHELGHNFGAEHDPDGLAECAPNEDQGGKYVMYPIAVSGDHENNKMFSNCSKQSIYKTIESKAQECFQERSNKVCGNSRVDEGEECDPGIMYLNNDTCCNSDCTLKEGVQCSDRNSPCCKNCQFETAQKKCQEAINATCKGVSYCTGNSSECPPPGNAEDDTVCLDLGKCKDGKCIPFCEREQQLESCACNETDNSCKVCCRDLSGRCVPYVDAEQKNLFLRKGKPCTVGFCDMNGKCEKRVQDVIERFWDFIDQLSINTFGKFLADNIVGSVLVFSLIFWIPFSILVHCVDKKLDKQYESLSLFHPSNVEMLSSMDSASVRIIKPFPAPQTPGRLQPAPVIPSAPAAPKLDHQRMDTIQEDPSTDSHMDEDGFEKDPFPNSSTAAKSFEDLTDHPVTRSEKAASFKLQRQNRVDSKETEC

[12] = biological target: Gamma-secretase; assay: Inhibition of gamma secretase (unknown origin); assay type: protein-complex assay, Homo sapiens
[13] = biological target: T1, Neuroendocrine convertase 2 (Homo sapiens, UniProt P16519); assay: Inhibition of recombinant C-terminal truncated human SPC2 expressed in drosophila Schneider 2 cells after 1 hr by spectrofluorometry; assay type: cell-based
T1 sequence (P16519 whole entry): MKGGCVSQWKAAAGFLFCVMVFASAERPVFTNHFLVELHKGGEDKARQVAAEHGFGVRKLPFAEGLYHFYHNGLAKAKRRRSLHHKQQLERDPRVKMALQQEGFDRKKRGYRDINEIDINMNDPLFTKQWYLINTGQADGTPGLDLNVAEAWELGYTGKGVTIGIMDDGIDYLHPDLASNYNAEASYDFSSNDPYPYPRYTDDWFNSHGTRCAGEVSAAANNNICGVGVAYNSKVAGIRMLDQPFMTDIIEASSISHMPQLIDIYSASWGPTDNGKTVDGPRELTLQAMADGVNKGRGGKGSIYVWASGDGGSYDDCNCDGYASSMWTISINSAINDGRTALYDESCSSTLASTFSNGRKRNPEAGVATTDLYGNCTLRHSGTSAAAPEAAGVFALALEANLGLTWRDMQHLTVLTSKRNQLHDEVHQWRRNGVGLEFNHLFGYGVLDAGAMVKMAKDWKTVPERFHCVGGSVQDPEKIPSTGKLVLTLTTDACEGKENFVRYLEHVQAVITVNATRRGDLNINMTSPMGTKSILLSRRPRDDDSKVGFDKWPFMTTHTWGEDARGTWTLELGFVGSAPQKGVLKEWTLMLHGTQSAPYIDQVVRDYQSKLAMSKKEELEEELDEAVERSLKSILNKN

[14] = biological target: T2, Neuroendocrine convertase 1 (Homo sapiens, UniProt P29120); assay: Inhibition of recombinant C-terminal truncated human SPC3 expressed in drosophila Schneider 2 cells after 1 hr by spectrofluorometry; assay type: cell-based
T2 sequence (P29120 whole entry): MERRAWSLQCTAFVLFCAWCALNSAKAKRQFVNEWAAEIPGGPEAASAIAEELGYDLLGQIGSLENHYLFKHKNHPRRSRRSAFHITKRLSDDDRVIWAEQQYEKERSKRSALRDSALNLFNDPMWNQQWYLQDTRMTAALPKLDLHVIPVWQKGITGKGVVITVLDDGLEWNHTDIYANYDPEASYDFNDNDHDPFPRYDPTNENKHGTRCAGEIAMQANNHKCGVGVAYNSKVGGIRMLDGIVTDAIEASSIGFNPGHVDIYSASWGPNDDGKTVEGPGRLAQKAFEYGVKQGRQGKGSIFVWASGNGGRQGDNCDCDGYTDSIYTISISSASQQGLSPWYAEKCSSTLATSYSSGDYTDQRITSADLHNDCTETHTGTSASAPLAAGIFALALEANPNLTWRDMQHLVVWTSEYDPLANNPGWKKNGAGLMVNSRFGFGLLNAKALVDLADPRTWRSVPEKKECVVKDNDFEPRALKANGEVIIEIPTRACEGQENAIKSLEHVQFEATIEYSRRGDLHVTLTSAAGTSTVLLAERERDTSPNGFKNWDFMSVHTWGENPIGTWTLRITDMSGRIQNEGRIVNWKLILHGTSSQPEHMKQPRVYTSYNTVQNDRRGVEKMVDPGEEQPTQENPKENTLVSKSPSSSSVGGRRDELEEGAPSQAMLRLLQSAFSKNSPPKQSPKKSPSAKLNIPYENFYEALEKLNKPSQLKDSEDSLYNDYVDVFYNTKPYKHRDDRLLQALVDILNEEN

[15] = biological target: Gamma-secretase; assay: Inhibition of gamma secretase (unknown origin) mediated APP cleavage in CHO cells expressing APP Swedish KM/NL mutant assessed as reduction in amyloid beta 40 after 24 hrs by sandwich ELISA
[16] = biological target: Gamma-secretase; assay: Inhibition of gamma secretase (unknown origin) mediated Notch M1726V mutant activation in CHO K1 cells after 48 hrs by chemiluminescence assay
[17] = biological target: Gamma-secretase; assay: Inhibition of gamma secretase in human MCF7 cells assessed as reduction in amyloid beta 40 after 3 days by Western blot analysis
[18] = biological target: Gamma-secretase; assay: Inhibition of gamma secretase in HEK293 cells expressing APP695 assessed as reduction in amyloid beta (1 to 40 residues) by ELISA; assay type: cell-based, Homo sapiens
[19] = biological target: Gamma-secretase; assay: Inhibition of gamma secretase mediated Notch1 signaling in HEK293 cells expressing truncated human Notch1 by luciferase reporter gene assay; assay type: cell-based
[20] = tested on: A549; assay: Antitumor activity against human A549 cells xenografted in nude mouse assessed as tumor growth inhibition at 3 to 60 mg/kg qd or bid administered via oral gavage for 7 to 21 days relative to vehicle treated control; assay type: functional
[21] = biological target: Gamma-secretase; assay: Modulation of gamma secretase (unknown origin) assessed as reduction in amyloid beta levels; assay type: protein-complex assay, Homo sapiens

`COc1oc(=O)c2cc(N)ccc2c1Cl` showed a pIC50 [1] of 4.52.

`C[C@H](NC(=O)Cc1cc(F)cc(F)c1)C(=O)N[C@H](C(=O)OC(C)(C)C)c1ccccc1` gave a pIC50 [2] of 6.70 to 6.94 and a pIC50 [3] of 6.30.

For `CC(C)C[C@H](NC(=O)[C@H](Cc1ccccc1)C[C@@H](O)[C@H](Cc1ccccc1)NC(=O)OC(C)(C)C)C(=O)N[C@@H](Cc1ccccc1)C(N)=O`, the pIC50 [4] was 7.77 and the pIC50 [5] was 6.70 to 6.94.

In the case of `CC1=C(C(=O)OC2CCCCC2)C(c2ccc([N+](=O)[O-])cc2)C2=C(CC(C)(C)CC2=O)N1` (configuration not stated), the pIC50 [6] was 5.64.

With `C[C@H](NC(=O)Cc1cc(F)cc(F)c1)C(=O)N[C@@H]1C(=O)N(C)c2ccccc2-c2ccccc21` the pIC50 [7] was 8.59 and the pIC50 [8] was 8.54.

`CC(C)[C@H](O)C(=O)N[C@@H](C)C(=O)N[C@@H]1C(=O)N(C)c2ccccc2-c2ccccc21` was tested, and the pIC50 [9] was 9.57.

For `C[C@H](NC(=O)CCC(F)(F)F)C(=O)N[C@H]1C(=O)N(CCO)c2ncccc2-c2ccccc21`, the pIC50 [10] was 9.39.

For `CC(C)CC(CC(=O)NO)C(=O)N[C@@H](Cc1ccc2ccccc2c1)C(=O)N[C@@H](C)C(=O)NCCN` (some centres not stated), the pIC50 [11] was 5.09.

`CC(C)[C@H](O)C(=O)N[C@@H](C)C(=O)N[C@@H]1C(=O)N(C)CCc2ccccc21` showed a pIC50 [12] of 7.92 to 7.96 and a pIC50 [10] of 7.85.

Molecule `CCCCCCCCCC(=O)N[C@@H](CCCNC(=N)N)C(=O)N[C@H](C(=O)N[C@@H](CCCCN)C(=O)N[C@@H](CCCNC(=N)N)C(=O)CCl)C(C)C` (Decanoyl-RVKR-CH2Cl) has a pKi [13] of 9.44 and a pKi [14] of 8.70.

For `O=S(=O)(N[C@H](CO)C(C(F)(F)F)C(F)(F)F)c1ccc(Cl)s1` [BEGACESTAT], the pIC50 [15] was 7.83 and the pIC50 [16] was 6.68.

`O=C(O)CC[C@H]1CC[C@@](c2cc(F)ccc2F)(S(=O)(=O)c2ccc(Cl)cc2)CC1` [MK-0752] was tested, and the pIC50 [17] was 8.30.

`CC(C)(C(=O)NCC(F)(F)C(F)(F)F)C(=O)N[C@@H]1C(=O)Nc2ccccc2-c2ccccc21` [RG-4733] was tested, and the pEC50 [18] was 7.85, the pEC50 [19] was 8.30 and the TGI [20] was 66 - 91%.

`C[C@@H](C(=O)O)c1ccc(-c2ccccc2)c(F)c1` [TARENFLURBIL] was tested, and the pIC50 [21] was 4.00.

From ChEMBL document CHEMBL4428029, “Notch Antagonists: Potential Modulators of Cancer and Inflammatory Diseases” (J Med Chem, 2016)
